The source of these data is ChEMBL document CHEMBL1159369, “Isolation, structure, and HIV-1 integrase inhibitory activity of Cytosporic acid, a fungal metabolite produced by a Cytospora sp” (J Nat Prod, 2003).

Activity calls are given as the source filed them. The calls are words filed in the database; no cut-off is given here.

The target in experiment [1] is Human immunodeficiency virus type 1 integrase (Human immunodeficiency virus 1, UniProt Q7ZJM1). As to the kind of experiment: Inhibition of HIV1 integrase strand transfer activity.
Sequence of Human immunodeficiency virus type 1 integrase (Q7ZJM1 whole entry): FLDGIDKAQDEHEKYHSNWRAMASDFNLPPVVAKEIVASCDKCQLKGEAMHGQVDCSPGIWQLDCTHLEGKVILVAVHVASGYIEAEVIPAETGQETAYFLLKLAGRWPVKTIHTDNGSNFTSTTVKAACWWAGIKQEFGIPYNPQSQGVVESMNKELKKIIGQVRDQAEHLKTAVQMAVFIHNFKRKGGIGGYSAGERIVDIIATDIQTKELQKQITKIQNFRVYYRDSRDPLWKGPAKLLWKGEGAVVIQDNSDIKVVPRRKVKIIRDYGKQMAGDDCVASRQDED
Experiment [2] addresses Human immunodeficiency virus type 1 integrase (Human immunodeficiency virus 1) (UniProt Q7ZJM1). As to the kind of experiment: Inhibition of HIV1 integrase strand transfer activity at 200 uM.

Sequence of Human immunodeficiency virus type 1 integrase (Human immunodeficiency virus 1) (Q7ZJM1 as listed by the source): as the sequence (Q7ZJM1 whole entry) above

In turn, `CCCC[C@@H](C)C1=C(O)C(=O)[C@@H]2C[C@H](C)C[C@H](C(=O)O)[C@H]2[C@]1(C)C(=O)CCO` [CYTOSPORIC ACID] returned an IC50 in experiment [1] of 20 µM. On to `CCCCCC[C@@H](C)C1=C(O)C(=O)[C@@H]2[C@H](O)[C@H](C)C[C@H](O)[C@H]2[C@]1(C)C(=O)CCO`, for which the outcome in experiment [2] was inactive. With `CCCCCC[C@@H](C)C1=C(O)C(=O)[C@@H]2[C@H](O)[C@H](C)C[C@H](O)[C@H]2[C@]1(C)C(=O)/C=C\O` [AUSTRALIFUNGIN], the IC50 in experiment [1] turned out to be 20 µM.

As usually defined, the IC50 is the concentration that gives 50% inhibition. Higher therefore signals a need for much substance.
